From publication PMC7026418, “The kinase polypharmacology landscape of clinical PARP inhibitors” (Scientific Reports, 2020)
Like-named read-outs stand apart in the source and are kept apart here. Values belong to the molecule of their own block, whether it stands above or below them.

Legend:
Assay in all cases: biochemical
Parameters in all cases: DiscoveRx KINOMEscan active site-directed competition binding; percent of control kinase bound to immobilised ligand
[1] = molecular target: T1, SGK3 (Homo sapiens, UniProt Q96BR1)
T1 sequence (Q96BR1 1-496): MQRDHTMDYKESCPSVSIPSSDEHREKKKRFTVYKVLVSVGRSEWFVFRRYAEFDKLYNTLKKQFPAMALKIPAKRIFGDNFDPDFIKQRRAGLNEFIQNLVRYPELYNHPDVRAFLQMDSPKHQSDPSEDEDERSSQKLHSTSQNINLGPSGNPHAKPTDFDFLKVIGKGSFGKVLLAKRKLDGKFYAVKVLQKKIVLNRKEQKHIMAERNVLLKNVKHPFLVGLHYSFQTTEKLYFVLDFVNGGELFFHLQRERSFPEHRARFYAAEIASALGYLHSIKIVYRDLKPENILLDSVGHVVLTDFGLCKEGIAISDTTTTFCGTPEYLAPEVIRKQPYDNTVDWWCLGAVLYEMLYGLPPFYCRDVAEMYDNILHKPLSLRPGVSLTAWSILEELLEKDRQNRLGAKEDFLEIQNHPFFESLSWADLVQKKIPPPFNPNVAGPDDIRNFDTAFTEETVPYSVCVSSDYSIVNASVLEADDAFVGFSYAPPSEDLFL

[2] = molecular target: T2, GRK2 (Homo sapiens, UniProt P25098)
T2 sequence (P25098 1-689): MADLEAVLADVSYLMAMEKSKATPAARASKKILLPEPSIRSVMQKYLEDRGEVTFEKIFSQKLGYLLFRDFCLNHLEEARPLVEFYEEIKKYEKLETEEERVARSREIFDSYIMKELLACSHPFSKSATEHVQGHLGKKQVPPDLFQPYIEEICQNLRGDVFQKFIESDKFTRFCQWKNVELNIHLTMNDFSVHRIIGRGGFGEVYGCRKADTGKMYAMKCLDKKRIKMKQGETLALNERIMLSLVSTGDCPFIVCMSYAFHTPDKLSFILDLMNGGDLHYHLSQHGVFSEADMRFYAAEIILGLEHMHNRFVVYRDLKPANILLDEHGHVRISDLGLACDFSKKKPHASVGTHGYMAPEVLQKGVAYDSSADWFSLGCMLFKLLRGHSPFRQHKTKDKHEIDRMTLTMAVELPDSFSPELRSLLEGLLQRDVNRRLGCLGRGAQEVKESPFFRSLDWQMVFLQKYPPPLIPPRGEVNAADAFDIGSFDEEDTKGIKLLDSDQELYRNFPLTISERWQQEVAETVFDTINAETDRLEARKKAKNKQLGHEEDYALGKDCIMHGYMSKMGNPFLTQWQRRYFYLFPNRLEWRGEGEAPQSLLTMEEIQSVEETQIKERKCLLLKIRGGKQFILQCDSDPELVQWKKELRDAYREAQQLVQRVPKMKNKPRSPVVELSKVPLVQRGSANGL

[3] = molecular target: T3, ULK1 (Homo sapiens, UniProt O75385)
T3 sequence (O75385 1-1050): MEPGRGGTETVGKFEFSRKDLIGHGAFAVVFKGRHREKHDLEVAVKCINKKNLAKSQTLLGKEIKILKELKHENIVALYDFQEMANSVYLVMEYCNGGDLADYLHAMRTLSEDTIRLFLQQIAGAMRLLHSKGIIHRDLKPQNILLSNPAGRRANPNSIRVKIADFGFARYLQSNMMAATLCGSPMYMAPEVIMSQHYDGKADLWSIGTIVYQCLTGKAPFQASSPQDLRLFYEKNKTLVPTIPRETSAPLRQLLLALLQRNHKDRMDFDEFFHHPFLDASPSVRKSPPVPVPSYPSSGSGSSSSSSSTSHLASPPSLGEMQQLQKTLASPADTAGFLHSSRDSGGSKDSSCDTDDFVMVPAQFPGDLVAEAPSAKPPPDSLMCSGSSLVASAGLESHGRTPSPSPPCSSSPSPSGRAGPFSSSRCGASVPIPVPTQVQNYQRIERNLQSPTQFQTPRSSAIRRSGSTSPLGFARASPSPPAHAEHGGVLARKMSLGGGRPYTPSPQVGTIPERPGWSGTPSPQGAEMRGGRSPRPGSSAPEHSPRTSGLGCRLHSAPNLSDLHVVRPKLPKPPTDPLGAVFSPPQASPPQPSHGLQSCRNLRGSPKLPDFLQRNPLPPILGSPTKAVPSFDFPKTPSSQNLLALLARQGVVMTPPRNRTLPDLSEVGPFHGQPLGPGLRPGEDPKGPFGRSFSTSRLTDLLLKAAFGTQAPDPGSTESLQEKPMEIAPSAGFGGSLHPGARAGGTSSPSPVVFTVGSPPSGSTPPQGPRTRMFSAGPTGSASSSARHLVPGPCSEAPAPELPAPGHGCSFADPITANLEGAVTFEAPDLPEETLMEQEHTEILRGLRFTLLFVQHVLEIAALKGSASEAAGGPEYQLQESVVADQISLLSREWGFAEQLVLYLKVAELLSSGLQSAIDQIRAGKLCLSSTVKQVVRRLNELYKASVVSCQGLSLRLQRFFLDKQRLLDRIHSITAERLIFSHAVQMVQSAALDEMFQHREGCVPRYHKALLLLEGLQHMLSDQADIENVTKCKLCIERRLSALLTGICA

[4] = read-out: Niraparib (MK-4827) / %Ctrl @ 10000nM
[5] = read-out: Olaparib / %Ctrl @ 10000nM
[6] = read-out: Rucaparib / %Ctrl @ 10000nM, binding competition, % of control
[7] = read-out: Talazoparib (BMN 673) / %Ctrl @ 10000nM

Compound: NC(=O)c1cccc2cn(-c3ccc([C@@H]4CCCNC4)cc3)nc12 [Niraparib]
percent of control binding at 10 µM [1, 4]: 98%
percent of control binding at 10 µM [2, 4]: 97%
percent of control binding at 10 µM [3, 4]: 100%

percent of control binding at 10 µM [1, 5]: 79%
percent of control binding at 10 µM [2, 5]: 79%
percent of control binding at 10 µM [3, 5]: 83%
Compound: O=C(c1cc(Cc2n[nH]c(=O)c3ccccc23)ccc1F)N1CCN(C(=O)C2CC2)CC1 [Olaparib]

percent of control binding at 10 µM [1, 6]: 38%
percent of control binding at 10 µM [2, 6]: 70%
percent of control binding at 10 µM [3, 6]: 64%
Compound: CNCc1ccc(-c2[nH]c3cc(F)cc4c3c2CCNC4=O)cc1 [Rucaparib]

percent of control binding at 10 µM [1, 7]: 100%
percent of control binding at 10 µM [2, 7]: 100%
percent of control binding at 10 µM [3, 7]: 94%
Compound: Cn1ncnc1[C@H]1c2n[nH]c(=O)c3cc(F)cc(c23)N[C@@H]1c1ccc(F)cc1 [Talazoparib]
